Results on 33 molecules are retold here after patent US9920075B2, “Triazolopyridine and triazolopyrimidine inhibitors of myeloperoxidase” (BRISTOL-MYERS SQUIBB COMPANY, priority 2014, dated 2018).

Several values for one entry are separate records, joined by “and”; a condition that tells them apart may be missing. Identical values can stand only once. Like-named read-outs stand apart in the source and are kept apart here.

The target of this assay is T1, myeloperoxidase (MPO) (Homo sapiens, UniProt P05164).
T1 sequence (P05164 49-745): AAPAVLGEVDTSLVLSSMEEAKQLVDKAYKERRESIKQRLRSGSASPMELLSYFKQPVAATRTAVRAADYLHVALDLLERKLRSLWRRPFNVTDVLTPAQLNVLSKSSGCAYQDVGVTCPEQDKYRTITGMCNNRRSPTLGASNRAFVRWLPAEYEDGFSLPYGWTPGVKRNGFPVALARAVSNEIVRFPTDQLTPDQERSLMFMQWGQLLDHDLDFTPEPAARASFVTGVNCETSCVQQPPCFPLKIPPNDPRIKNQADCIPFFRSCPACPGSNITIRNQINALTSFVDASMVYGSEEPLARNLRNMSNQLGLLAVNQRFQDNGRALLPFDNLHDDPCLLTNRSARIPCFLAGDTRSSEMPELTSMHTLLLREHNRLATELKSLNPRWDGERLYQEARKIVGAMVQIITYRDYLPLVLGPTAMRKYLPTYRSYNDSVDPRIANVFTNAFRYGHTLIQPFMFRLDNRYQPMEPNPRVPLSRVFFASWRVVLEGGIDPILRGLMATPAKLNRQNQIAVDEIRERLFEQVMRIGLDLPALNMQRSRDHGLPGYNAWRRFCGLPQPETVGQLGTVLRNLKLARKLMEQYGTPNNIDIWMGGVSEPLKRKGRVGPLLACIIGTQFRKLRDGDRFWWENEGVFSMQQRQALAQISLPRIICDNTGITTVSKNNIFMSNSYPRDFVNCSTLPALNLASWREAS
Nature of the assay: MPO peroxidation assay (Amplex Red assay). The format is biochemical. The note with it: MPO peroxidation (Amplex Red), ranges given. The protocol: MPO Peroxidation Assay (Amplex Red Assay)
MPO peroxidation activity was measured in 100 mM KPi (pH 7.4) by utilizing the non-fluorescent reagent Amplex Red (Invitrogen Cat. #A12222) which can be oxidized to the highly fluorescent resorufin. Amplex Red is oxidized by the peroxidase action of MPO to resorufin. […] Enzyme and compound were preincubated for ten minutes at room temperature.
After the ten minute preincubation, 25 μL of an Amplex Red mixture containing 200 μM Amplex Red and 10 mM H2O2 was added to the plate.
IC50 values were calculated by determining the slope of the linear portion of the kinetic trace (180-540 secs), and using that calculated slope to determine % inhibition occurring at each concentration of inhibitor using the following equation:
[formula] where A=minimal Y value (activity level of inhibited sample), B=maximal Y value (activity level of uninhibited sample), C=Log IC50, D=Hill Slope, x=concentration of inhibitor. MPO Chlorination Assay (APF Assay)

Setting [1] is: read-out: MPO peroxidation assay IC50 values (binned).
The mark [2] stands for this setting: MPO peroxidation assay IC50 values (binned).

As for `Cc1nn(C2CCC(C)C2)nc1COc1cc(N)nc2[nH]nnc12` (mixture of isomers) [Example 72, 7-((5-Methyl-2-(3-methylcyclopentyl)-2H-1,2,3-triazol-4-yl)methoxy)-3H-[1,2,3]triazolo[4,5-b]pyridin-5-amine], the half-inhibitory concentration (IC50) under setting [1] was no more than 60 nM.

Consider `Nc1cc(OCc2ccc3c(c2)OCO3)c2nn[nH]c2n1` [Example 1, 7-(Benzo[d][1,3]dioxol-5-ylmethoxy)-3H-[1,2,3]triazolo[4,5-b]pyridin-5-amine], for which the half-inhibitory concentration (IC50) under setting [1] was no more than 60 nM.

Consider `Nc1cc(OCc2cccc3c2OCCO3)c2nn[nH]c2n1` [Example 2, 7-((2,3-Dihydrobenzo[b][1,4]dioxin-5-yl)methoxy)-3H-[1,2,3]triazolo[4,5-b]pyridin-5-amine], for which the IC50 under setting [1] is no more than 60 nM.

Turning to `Nc1cc(OCc2cccc3c2OC(F)(F)O3)c2nn[nH]c2n1` [Example 3, 7-((2,2-Difluorobenzo[d][1,3]dioxol-4-yl)methoxy)-3H-[1,2,3]triazolo[4,5-b]pyridin-5-amine], the concentration for half-maximal inhibition (IC50) under setting [1] was no more than 60 nM.

Take `Nc1cc(OCc2cn(-c3ccccc3)nn2)c2nn[nH]c2n1` [Example 4, 7-((1-Phenyl-1H-1,2,3-triazol-4-yl)methoxy)-3H-[1,2,3]triazolo[4,5-b]pyridin-5-amine]: the IC50 under setting [2] lay within 60 to 150 nM.

Turning to `Nc1cc(OCc2cccc(-c3cccc(F)c3)n2)c2nn[nH]c2n1` [Example 5, 7-((6-(3-Fluorophenyl)pyridin-2-yl)methoxy)-3H-[1,2,3]triazolo[4,5-b]pyridin-5-amine], the IC50 under setting [1] lay in the range of 60 to 150 nM.

`Nc1cc(OCc2cccc3cccnc23)c2nn[nH]c2n1` [Example 7, 7-(Quinolin-8-ylmethoxy)-3H-[1,2,3]triazolo[4,5-b]pyridin-5-amine]: the half-inhibitory concentration (IC50) under setting [1] was no more than 60 nM.

On to `Cn1ncc2cccc(COc3cc(N)nc4[nH]nnc34)c21` [Example 8, 7-((1-Methyl-1H-indazol-7-yl)methoxy)-3H-[1,2,3]triazolo[4,5-b]pyridin-5-amine], for which the IC50 under setting [1] was no more than 60 nM.

As for `Cn1ncc2ccc(COc3cc(N)nc4[nH]nnc34)cc21` [Example 9, 7-((1-Methyl-1H-indazol-6-yl)methoxy)-3H-[1,2,3]triazolo[4,5-b]pyridin-5-amine], under setting [1], the IC50 was no more than 60 nM.

Turning to `Cc1nn(-c2ccc(F)cc2)nc1COc1cc(N)nc2[nH]nnc12` [Example 10, 7-((2-(4-Fluorophenyl)-5-methyl-2H-1,2,3-triazol-4-yl)methoxy)-3H-[1,2,3]triazolo[4,5-b]pyridin-5-amine], the half-inhibitory concentration (IC50) under setting [1] was no more than 60 nM.

For the molecule `Nc1cc(OCc2cccc(C(F)(F)F)n2)c2nn[nH]c2n1` [Example 16, 7-((6-(Trifluoromethyl)pyridin-2-yl)methoxy)-3H-[1,2,3]triazolo[4,5-b]pyridin-5-amine], the IC50 under setting [1] is no more than 60 nM.

`Cn1nc(COc2cc(N)nc3[nH]nnc23)cc1-c1ccccc1` [Example 17, 7-((1-Methyl-5-phenyl-1H-pyrazol-3-yl)methoxy)-3H-[1,2,3]triazolo[4,5-b]pyridin-5-amine]: under setting [1], the 50% inhibitory concentration (IC50) was no more than 60 nM.

On to `Cn1nc(-c2ccccc2)cc1COc1cc(N)nc2[nH]nnc12` [Example 18, 7-((1-Methyl-3-phenyl-1H-pyrazol-5-yl)methoxy)-3H-[1,2,3]triazolo[4,5-b]pyridin-5-amine], for which the concentration for half-maximal inhibition (IC50) under setting [1] was no more than 60 nM.

Regarding `CCn1nc(C(F)(F)F)cc1COc1cc(N)nc2[nH]nnc12` [Example 19, 7-((1-Ethyl-3-(trifluoromethyl)-1H-pyrazol-5-yl)methoxy)-3H-[1,2,3]triazolo[4,5-b]pyridin-5-amine], the half-inhibitory concentration (IC50) under setting [1] was no more than 60 nM.

Turning to `Cn1nc(C2CC2)cc1COc1cc(N)nc2[nH]nnc12` [Example 20, 7-((3-Cyclopropyl-1-methyl-1H-pyrazol-5-yl)methoxy)-3H-[1,2,3]triazolo [4,5-b]pyridin-5-amine], under setting [1], the IC50 was no more than 60 nM.

Molecule `Cc1nn(-c2ccccc2)nc1COc1cc(N)nc2[nH]nnc12` [Example 21, 7-((5-Methyl-2-phenyl-2H-1,2,3-triazol-4-yl)methoxy)-3H-[1,2,3]triazolo [4,5-b]pyridin-5-amine] showed an IC50 under setting [2] of no more than 60 nM.

`Nc1cc(OCc2nc(-c3ccccc3)no2)c2nn[nH]c2n1` [Example 24, 7-((3-Phenyl-1,2,4-oxadiazol-5-yl)methoxy)-3H-[1,2,3]triazolo[4,5-b]pyridin-5-amine]: under setting [1], the IC50 was in the range of 60 to 150 nM.

Under setting [2], `Nc1cc(OCc2ncc(-c3ccccc3)o2)c2nn[nH]c2n1` [Example 25, 7-((5-Phenyloxazol-2-yl)methoxy)-3H-[1,2,3]triazolo[4,5-b]pyridin-5-amine] came in with an IC50 of 60 to 150 nM.

As for `Nc1cc(OCc2cnc(-c3ccccc3)s2)c2nn[nH]c2n1` [Example 26, 7-((2-Phenylthiazol-5-yl)methoxy)-3H-[1,2,3]triazolo[4,5-b]pyridin-5-amine], under setting [1], the IC50 lay within 150 to 1000 nM.

For the molecule `Cc1oc(-c2cc(F)cc(F)c2)nc1COc1cc(N)nc2[nH]nnc12` [Example 27, 7-((2-(3,5-Difluorophenyl)-5-methyloxazol-4-yl)methoxy)-3H-[1,2,3]triazolo[4,5-b]pyridin-5-amine], the IC50 under setting [1] lay in the range of 150 to 1000 nM.

Consider `Nc1cc(OCc2nnc3cccc(Cl)n23)c2nn[nH]c2n1` [Example 29, 7-((5-Chloro-[1,2,4]triazolo[4,3-a]pyridin-3-yl)methoxy)-3H-[1,2,3]triazolo [4,5-b]pyridin-5-amine], for which the IC50 under setting [1] was 60 to 150 nM.

As for `Nc1cc(OCc2cnn(-c3ccccn3)c2)c2nn[nH]c2n1` [Example 30, 7-((1-(Pyridin-2-yl)-1H-pyrazol-4-yl)methoxy)-3H-[1,2,3]triazolo[4,5-b]pyridin-5-amine], the half-inhibitory concentration (IC50) under setting [1] was in the range of 60 to 150 nM.

`Cc1nc(-c2ccc(Cl)cc2)ncc1COc1cc(N)nc2[nH]nnc12` [Example 31, 7-((2-(4-Chlorophenyl)-4-methylpyrimidin-5-yl)methoxy)-3H-[1,2,3]triazolo[4,5-b]pyridin-5-amine]: under setting [1], the half-maximal inhibitory concentration (IC50) was 150 to 1000 nM.

Turning to `Cn1cnc2cccc(COc3cc(N)nc4[nH]nnc34)c21` [Example 36, 7-((1-Methyl-1H-benzo[d]imidazol-7-yl)methoxy)-3H-[1,2,3]triazolo[4,5-b]pyridin-5-amine], the IC50 under setting [1] fell in the range of 150 to 1000 nM.

With `Nc1cc(OCc2cccc3c2ncn3Cc2ccccc2)c2nn[nH]c2n1` [Example 37, 7-((1-Benzyl-1H-benzo[d]imidazol-4-yl)methoxy)-3H-[1,2,3]triazolo[4,5-b]pyridin-5-amine], the IC50 under setting [1] was in the range of 150 to 1000 nM.

Turning to `Nc1cc(OCc2cccc3c2nnn3Cc2ccccc2)c2nn[nH]c2n1` [Example 38, 7-((1-Benzyl-1H-benzo[d][1,2,3]triazol-4-yl)methoxy)-3H-[1,2,3]triazolo [4,5-b]pyridin-5-amine], the IC50 under setting [1] was 60 to 150 nM and 150 to 1000 nM.

Take `Cc1oc(-c2ccc(Cl)cc2Cl)nc1COc1cc(N)nc2[nH]nnc12` [Example 39, 7-((2-(2,4-Dichlorophenyl)-5-methyloxazol-4-yl)methoxy)-3H-[1,2,3]triazolo[4,5-b]pyridin-5-amine]: under setting [1], the half-inhibitory concentration (IC50) was no more than 60 nM.

For the molecule `Nc1cc(OCc2cn3nc(Cl)ccc3n2)c2nn[nH]c2n1` [Example 40, 7-((6-Chloroimidazo[1,2-b]pyridazin-2-yl)methoxy)-3H-[1,2,3]triazolo[4,5-b]pyridin-5-amine], under setting [1], the IC50 was 150 to 1000 nM.

`Nc1cc(OCc2csc(-c3ccccc3)n2)c2nn[nH]c2n1` [Example 42, 7-((2-Phenylthiazol-4-yl)methoxy)-3H-[1,2,3]triazolo[4,5-b]pyridin-5-amine]: under setting [1], the IC50 is 60 to 150 nM.

For `N#Cc1ccccc1-c1cc(COc2cc(N)nc3[nH]nnc23)on1` [Example 45, 2-(5-((5-Amino-3H-[1,2,3]triazolo[4,5-b]pyridin-7-yloxy)methyl)isoxazol-3-yl)benzonitrile], the IC50 under setting [1] is no more than 60 nM.

With `Cc1nc(-c2ccc(Cl)cc2)sc1COc1cc(N)nc2[nH]nnc12` [Example 49, 7-((2-(4-Chlorophenyl)-4-methylthiazol-5-yl)methoxy)-3H-[1,2,3]triazolo [4,5-b]pyridin-5-amine], the half-inhibitory concentration (IC50) under setting [1] was no more than 60 nM.

For `Nc1cc(OCc2nn(-c3cccc(Cl)c3)c3c2CCNC3=O)c2nn[nH]c2n1` [Example 51, 3-(((5-Amino-3H-[1,2,3]triazolo[4,5-b]pyridin-7-yl)oxy)methyl)-1-(3-chlorophenyl)-5,6-dihydro-1H-pyrazolo[3,4-c]pyridin-7(4H)-one], the IC50 under setting [1] is 60 to 150 nM.

`Cc1nc(-c2ccccc2)oc1COc1cc(N)nc2[nH]nnc12` [Example 54, 7-((4-Methyl-2-phenyloxazol-5-yl)methoxy)-3H-[1,2,3]triazolo[4,5-b]pyridin-5-amine]: the IC50 under setting [1] is 60 to 150 nM.
